This note sets out measurements from PubChem BioAssay AID1919002 (Molecular Pharmacology Branch, DTP, NCI, 2023).

A word on the IC50: it is the point on the concentration scale where inhibition reaches its midpoint. In general, viability, T/C refers to the result in the treated group divided by that in the control group, in per cent.

This test has as its system 743489-274-T-PDC complex spheroid growth. Kind of test: Anticancer human tumor 743489-274-T-PDC patient-derived renal cell carcinoma cell line growth inhibition [AhR]. The conditions noted are these: for viability, T/C: stronger effect = lower value. The procedure, abridged: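 Spheroids combined tumor cells with HUVEC endothelial cells and human MSCs as stroma. AhR antagonists were paired with standard or investigational drugs, each dosed in half-log steps down from near clinical Cmax, or from 10 microM where Cmax was unknown.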

[1] abbreviates: curve of first compound, second compound 0.1 µM.
[2] abbreviates: curve of first compound, second compound 0.316 µM.
Setting [3] is: curve of first compound, second compound 1 µM.
Where [4] appears, read: curve of first compound, second compound 3.16 µM.
[5] abbreviates: curve of first compound, second compound 10 µM.
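Further: spheroids exposed to agents for 7 days before readout.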
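Wherever viability, T/C is given: 100% = DMSO vehicle control wells.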

Regarding `Nc1ccccc1NC(=O)c1ccc(CNC(=O)OCc2cccnc2)cc1` + CC(CO)NC(=O)c1cc(-c2ccc(Cl)cc2)nn(-c2cnn(C)c2)c1=O, the IC50 by setting is: under setting [1], 4810 nM; under setting [2], 3740 nM; under setting [3], 4310 nM; under setting [4], 1740 nM; under setting [5], 1080 nM. In addition, the viability, T/C (second compound 0.1 µM, first compound 0.0316 µM) was 92.7%; the viability, T/C (second compound 0.1 µM, first compound 0.1 µM) was 92.3%; the viability, T/C (second compound 0.1 µM, first compound 0.316 µM) was 92.9%; the viability, T/C (second compound 0.1 µM, first compound 1 µM) was 72.5%; the viability, T/C (second compound 0.1 µM, first compound 3.16 µM) was 61.8%; the viability, T/C (second compound 0.1 µM, first compound 10 µM) was 32.9%. Besides, the viability, T/C is 89.1% (second compound 0.316 µM, first compound 0.0316 µM); 80.9% (second compound 0.316 µM, first compound 0.1 µM); 87.9% (second compound 0.316 µM, first compound 0.316 µM); 62.6% (second compound 0.316 µM, first compound 1 µM); 55.4% (second compound 0.316 µM, first compound 3.16 µM); 34.6% (second compound 0.316 µM, first compound 10 µM). The viability, T/C is 92.5% (second compound 1 µM, first compound 0.0316 µM); 91% (second compound 1 µM, first compound 0.1 µM); 80.5% (second compound 1 µM, first compound 0.316 µM); 78.4% (second compound 1 µM, first compound 1 µM); 56.4% (second compound 1 µM, first compound 3.16 µM); 29.7% (second compound 1 µM, first compound 10 µM). Besides, the viability, T/C (second compound 3.16 µM, first compound 0.0316 µM) is 88.4%; the viability, T/C (second compound 3.16 µM, first compound 0.1 µM) was 88.5%; the viability, T/C (second compound 3.16 µM, first compound 0.316 µM) is 78%; the viability, T/C (second compound 3.16 µM, first compound 1 µM) was 59.7%; the viability, T/C (second compound 3.16 µM, first compound 3.16 µM) is 39.7%; the viability, T/C (second compound 3.16 µM, first compound 10 µM) was 27.7%. The viability, T/C is, setting by setting: (second compound 10 µM, first compound 0.0316 µM) 79.1%; (second compound 10 µM, first compound 0.1 µM) 87.3%; (second compound 10 µM, first compound 0.316 µM) 69.2%; (second compound 10 µM, first compound 1 µM) 52.4%; (second compound 10 µM, first compound 3.16 µM) 31.3%; (second compound 10 µM, first compound 10 µM) 23.4%.

Take `CC(CO)NC(=O)c1cc(-c2ccc(Cl)cc2)nn(-c2cnn(C)c2)c1=O` (configuration not stated): the viability, T/C (compound 0.316 µM) was 90% [middle of 21 runs]. For the same molecule, under “compound alone, run of 08/08/2022”, the IC50 is more than 10000 nM.

Turning to `CC(C)CC(NC(=O)C(Cc1ccccc1)NC(=O)c1cnccn1)B(O)O` (configuration not stated) + Cc1ccccc1N=Nc1ccc(NC(=O)c2ccnn2C)c(C)c1, the IC50 came out at 21.8 nM under setting [1]; 24.8 nM under setting [2]; 28.2 nM under setting [3]; 22.2 nM under setting [4]; 21.2 nM under setting [5]. Besides, the viability, T/C reads like this: (second compound 0.1 µM, first compound 0.000949 µM) 99.1%; (second compound 0.1 µM, first compound 0.003 µM) 115%; (second compound 0.1 µM, first compound 0.00949 µM) 97.4%; (second compound 0.1 µM, first compound 0.03 µM) 31.5%; (second compound 0.1 µM, first compound 0.0949 µM) 13.8%; (second compound 0.1 µM, first compound 0.3 µM) 4.06%. The viability, T/C is, setting by setting: (second compound 0.316 µM, first compound 0.000949 µM) 83.8%; (second compound 0.316 µM, first compound 0.003 µM) 98.5%; (second compound 0.316 µM, first compound 0.00949 µM) 100%; (second compound 0.316 µM, first compound 0.03 µM) 41.1%; (second compound 0.316 µM, first compound 0.0949 µM) 16.2%; (second compound 0.316 µM, first compound 0.3 µM) 2.22%. Further, the viability, T/C (second compound 1 µM, first compound 0.000949 µM) was 88.9%; the viability, T/C (second compound 1 µM, first compound 0.003 µM) was 111%; the viability, T/C (second compound 1 µM, first compound 0.00949 µM) was 113%; the viability, T/C (second compound 1 µM, first compound 0.03 µM) was 46.9%; the viability, T/C (second compound 1 µM, first compound 0.0949 µM) is 15.2%; the viability, T/C (second compound 1 µM, first compound 0.3 µM) is 5%. Besides, the viability, T/C is, setting by setting: (second compound 3.16 µM, first compound 0.000949 µM) 89.1%; (second compound 3.16 µM, first compound 0.003 µM) 94.8%; (second compound 3.16 µM, first compound 0.00949 µM) 94.2%; (second compound 3.16 µM, first compound 0.03 µM) 34.9%; (second compound 3.16 µM, first compound 0.0949 µM) 17.3%; (second compound 3.16 µM, first compound 0.3 µM) 2.43%. For the same molecule, the viability, T/C was 77.4% (second compound 10 µM, first compound 0.000949 µM); 97.6% (second compound 10 µM, first compound 0.003 µM); 89.4% (second compound 10 µM, first compound 0.00949 µM); 33.6% (second compound 10 µM, first compound 0.03 µM); 10.4% (second compound 10 µM, first compound 0.0949 µM); 4.58% (second compound 10 µM, first compound 0.3 µM).
